One may read the ED50 as the midpoint of the dose-response relation.

Results on seven compounds are retold here after ChEMBL document CHEMBL3244016, “Isomers of erythro-5-(1-hydroxy-2-isopropylaminobutyl)-8-hydroxycarbostyril, a new bronchodilator” (J Med Chem, 1977).

The subject of series [1] is Canis familiaris. The experiment in a line: Increase in heart rate in iv dosed anesthetized mongrel dog. It is filed as organism-based, Canis lupus familiaris. As to conditions: in vivo.
Series [2] has as its system Canis familiaris. The experiment in a line: Bronchodilatory activity in iv dosed mongrel dog assessed as inhibition of histamine-induced bronchospasm administered 1 min prior to histamine challenge relative to l-isoproterenol. It is filed as functional, Canis lupus familiaris.
For series [3], the system named is Canis familiaris. Put plainly: Increase in heart rate in iv dosed anesthetized mongrel dog relative to l-isoproterenol. The class given is organism-based, Canis lupus familiaris. The conditions noted are these: in vivo.
The species entered for series [4] is Canis familiaris. The experiment in a line: Separation ratio of ED25 for increase in heart rate in mongrel dog to ED50 for inhibition of bronchoconstriction in mongrel dog. The arrangement: species or system Canis lupus familiaris.
The test system of series [5] is Canis familiaris. The experiment in a line: Bronchodilatory activity in iv dosed mongrel dog assessed as inhibition of histamine-induced bronchospasm administered 1 min prior to histamine challenge. It is filed as functional. The conditions noted are these: Canis lupus familiaris.

Take `CCC(NC(C)C)C(O)c1ccc(O)c2[nH]c(=O)ccc12` (racemic; threo) [PROCATEROL]: in the series on Canis familiaris [1], the ED19.5 was 300 µg/kg. Also, in the series with Canis familiaris [2], the “Ratio ED50” value is given as 148.

Regarding `CCC(NC(C)C)C(O)c1ccc(O)c2[nH]c(=O)ccc12` (racemic; erythro) [PROCATEROL], the “Ratio ED50” value with Canis familiaris [2] came out at 2.03. Besides, the Ratio with Canis familiaris [3] is 50.5; in the series listed under Canis familiaris [4], 24.9.

As for `CC[C@@H](NC(C)C)[C@H](O)c1ccc(O)c2[nH]c(=O)ccc12`, in the series with Canis familiaris [2], the “Ratio ED50” value was 4110. Further, the figures for the Ratio in the series with Canis familiaris [3] and in the series filed under Canis familiaris [4] were 7560 and 1.84, respectively.

For the compound `CC[C@@H](NC(C)C)[C@@H](O)c1ccc(O)c2[nH]c(=O)ccc12`, the ED14.5 in the series on Canis familiaris [1] worked out at 3000 µg/kg. The “Ratio ED50” value in the series on Canis familiaris [2] is 18500.

With `CC[C@H](NC(C)C)[C@@H](O)c1ccc(O)c2[nH]c(=O)ccc12`, the “Ratio ED50” value in the series on Canis familiaris [2] amounted to 566. Moreover, the Ratio is recorded as 9550 in the series with Canis familiaris [3] and 16.9 in the series listed under Canis familiaris [4].

Consider `CC(C)NCC(O)c1ccc(O)c(O)c1` (stereo not drawn) [ISOPROTERENOL], for which, in the series on Canis familiaris [1], the ED25 was 0.019 µg/kg. Further, in the series on Canis familiaris [5], the 50% effective dose (ED50) came out at 0.069 µg/kg.

As to `CCC(NC(C)C)C(O)c1ccc(O)c2[nH]c(=O)ccc12` (stereo in doubt) [PROCATEROL], the “Ratio ED50” value in the series on Canis familiaris [2] worked out at 1.41. Further, the Ratio with Canis familiaris [3] is given as 33.2; in the series filed under Canis familiaris [4] it was 23.5.
